From ChEMBL document CHEMBL1201862, “PubChem BioAssay data set” (2004)
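Grown in 96-well plates, cells were treated for 48 hours with each compound at five concentrations. Insufficient inhibition: endpoint recorded as highest concentration tested. GI50 is the concentration that inhibits growth by half.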 Calls of active or inactive are those of the source. Rule as the data show it: active = GI50 up to about 1.1 µM and inactive = higher.

Tests used:
Assay in all cases: inhibition of tumour cell growth, NCI panel, 48 h
[1] = test system: OVCAR-4
[2] = test system: COLO 205
[3] = test system: M19-MEL
[4] = test system: UACC-62
[5] = test system: SK-MEL-2
[6] = test system: U-251
[7] = test system: SR
[8] = test system: RPMI-8226
[9] = test system: OVCAR-3
[10] = test system: Malme-3M
[11] = test system: ACHN
[12] = test system: DMS-114
[13] = test system: K562
[14] = test system: NCI-H522
[15] = test system: A498
[16] = test system: 786-0
[17] = test system: SNB-78
[18] = test system: OVCAR-5
[19] = test system: SF-295
[20] = test system: SF-268
[21] = test system: HT-29
[22] = test system: HCT-116
[23] = test system: UO-31
[24] = test system: CCRF-CEM
[25] = test system: MOLT-4
[26] = test system: M14
[27] = test system: IGROV-1
[28] = test system: SNB-19
[29] = test system: HOP-92
[30] = test system: KM-20L2
[31] = test system: LXFL 529
[32] = test system: SK-MEL-28
[33] = test system: RXF 393
[34] = test system: KM12
[35] = test system: SNB-75
[36] = test system: SK-OV-3
[37] = test system: NCI-H460
[38] = test system: NCI-H23
[39] = test system: UACC-257
[40] = test system: HOP-62
[41] = test system: A549
[42] = test system: EKVX
[43] = test system: DMS-273
[44] = test system: SN12C
[45] = test system: HCC 2998
[46] = test system: SW-620
[47] = test system: OVCAR-8
[48] = test system: HCT-15
[49] = test system: LOX IMVI
[50] = test system: HOP-18
[51] = test system: TK-10
[52] = test system: SF-539
[53] = test system: CAKI-1
[54] = test system: SK-MEL-5
[55] = test system: DLD-1
[56] = test system: NCI-H226
[57] = test system: HL-60

Measured: GI50

COc1ccc2c(c1)CC[C@@H]1C2CC[C@]2(C)C(=O)N(N)C(=O)CC12 (stereo partly specified)
inactive: [1] > 100 µM | [2] > 100 µM | [3] > 100 µM | [4] 80.9 µM | [5] > 100 µM | [6] > 100 µM | [7] 38 µM | [8] 28.8 µM | [9] > 100 µM | [10] > 100 µM | [11] > 100 µM | [12] 44.5 µM | [13] 32.6 µM | [14] 48.8 µM | [15] 35.8 µM | [16] > 100 µM | [17] 77.4 µM | [18] > 100 µM | [19] > 100 µM | [20] > 100 µM | [21] > 100 µM | [22] > 100 µM | [23] 72.9 µM | [24] 80 µM | [25] 44.4 µM | [26] 78.3 µM | [27] > 100 µM | [28] > 100 µM | [29] > 100 µM | [30] 32.9 µM | [31] 52.6 µM | [32] > 100 µM | [33] > 10 µM | [34] > 100 µM | [35] > 100 µM | [36] > 100 µM | [37] 37.2 µM | [38] > 100 µM | [39] 35.6 µM | [40] > 100 µM

Cn1cc2ccccc2c1-c1nc(F)nc(Oc2ccc3c(c2)CC[C@@H]2C3CC[C@]3(C)C(O)CCC23)n1 (stereo partly specified)
inactive: [1] 14.2 µM | [2] 22.3 µM | [41] 22.1 µM | [42] > 10 µM | [3] 21.7 µM | [5] 16.5 µM | [43] 19.8 µM | [44] 15.4 µM | [6] 12 µM | [9] 17.7 µM | [45] 19.9 µM | [10] 18.3 µM | [46] 19.5 µM | [11] 18.5 µM | [47] 17.4 µM | [12] 13.8 µM | [13] 29.2 µM | [14] 10.9 µM | [16] 16.9 µM | [17] 12.2 µM | [18] 18.6 µM | [49] 15.8 µM | [19] 15.3 µM | [20] 17.3 µM | [50] 15.3 µM | [22] 17.5 µM | [51] 16.2 µM | [52] 17.4 µM | [53] > 10 µM | [23] 21.7 µM | [24] 5.78 µM | [25] 17.6 µM | [26] 15.9 µM | [27] 13.7 µM | [28] 18.7 µM | [29] 18.4 µM | [30] 20.2 µM | [31] 10.4 µM | [32] 16.3 µM | [54] 15 µM | [55] 15.9 µM | [33] 22.6 µM | [34] > 10 µM | [35] 14.2 µM | [36] 17.2 µM | [56] 52.7 µM | [38] > 10 µM | [39] 18.8 µM | [40] 16.7 µM
14.6 µM: [48]

COc1ccc2nc(NC(=O)C(=O)C(C#N)c3ccc([N+](=O)[O-])cc3)sc2c1 (stereo unspecified)
> 100 µM: [48]
inactive: [1] > 100 µM | [2] > 100 µM | [41] > 100 µM | [42] 31.9 µM | [3] > 100 µM | [4] 46 µM | [5] > 100 µM | [43] > 100 µM | [44] > 100 µM | [6] > 100 µM | [8] 31.2 µM | [9] > 100 µM | [45] > 100 µM | [10] > 100 µM | [46] > 100 µM | [11] > 100 µM | [47] > 100 µM | [12] 43.3 µM | [13] 72.1 µM | [14] 55.5 µM | [16] > 100 µM | [17] > 100 µM | [18] > 100 µM | [49] > 100 µM | [19] > 100 µM | [20] > 100 µM | [50] 99.8 µM | [21] > 100 µM | [22] > 100 µM | [51] > 100 µM | [52] > 100 µM | [53] > 100 µM | [23] 11.2 µM | [25] 38.3 µM | [26] > 100 µM | [27] > 100 µM | [28] > 100 µM | [29] > 100 µM | [30] > 100 µM | [31] 23.6 µM | [32] > 100 µM | [54] > 100 µM | [55] > 100 µM | [33] > 100 µM | [34] > 100 µM | [35] > 100 µM | [36] > 100 µM | [56] > 100 µM | [37] > 100 µM | [38] > 100 µM | [39] > 100 µM | [40] > 100 µM

CC(=O)OC1CCC2OOC1O2 (stereo unspecified)
> 100 µM: [48]
inactive: [1] > 100 µM | [2] > 100 µM | [57] > 100 µM | [41] > 100 µM | [42] > 100 µM | [3] > 100 µM | [4] > 100 µM | [5] > 100 µM | [43] > 100 µM | [44] > 100 µM | [6] > 100 µM | [7] > 100 µM | [8] > 100 µM | [9] > 100 µM | [45] > 100 µM | [10] > 100 µM | [46] > 100 µM | [11] > 100 µM | [47] > 100 µM | [12] > 100 µM | [13] > 100 µM | [14] > 100 µM | [15] > 100 µM | [16] > 100 µM | [17] > 100 µM | [18] > 100 µM | [49] > 100 µM | [19] > 100 µM | [20] > 100 µM | [21] > 100 µM | [22] > 100 µM | [51] > 100 µM | [52] > 100 µM | [53] > 100 µM | [23] > 100 µM | [24] > 100 µM | [25] > 100 µM | [26] > 100 µM | [27] > 100 µM | [28] > 100 µM | [30] > 100 µM | [32] > 100 µM | [54] > 100 µM | [33] > 100 µM | [34] > 100 µM | [35] > 100 µM | [36] > 100 µM | [56] > 100 µM | [37] > 100 µM | [38] > 100 µM | [39] > 100 µM | [40] > 100 µM

COC(=O)[C@@]1(C)/C(=N/NS(=O)(=O)c2ccc(C)cc2)CCC[C@@H]1C
16.3 µM: [48]
inactive: [1] > 100 µM | [2] 69.2 µM | [57] 6.37 µM | [41] > 100 µM | [42] > 100 µM | [3] > 100 µM | [4] > 100 µM | [5] > 100 µM | [44] > 100 µM | [6] > 100 µM | [7] 19.8 µM | [8] 30.8 µM | [9] > 100 µM | [45] > 100 µM | [10] > 100 µM | [11] > 100 µM | [47] > 100 µM | [12] 24.3 µM | [13] 74.3 µM | [14] 41.8 µM | [15] > 100 µM | [16] > 100 µM | [17] > 100 µM | [18] > 100 µM | [49] 14.3 µM | [19] > 100 µM | [20] > 100 µM | [50] > 100 µM | [21] > 100 µM | [22] > 100 µM | [51] > 100 µM | [52] 88.3 µM | [53] > 100 µM | [23] > 100 µM | [24] 27.8 µM | [25] > 100 µM | [26] > 100 µM | [27] > 100 µM | [28] > 100 µM | [29] > 100 µM | [30] > 100 µM | [31] > 100 µM | [32] > 100 µM | [54] > 100 µM | [55] 44.7 µM | [33] > 100 µM | [34] > 100 µM | [35] > 100 µM | [36] > 100 µM | [56] > 100 µM | [37] 34 µM | [38] > 100 µM | [39] > 100 µM | [40] > 100 µM
